This note sets out measurements from patent US10815222B2, “Compounds for use in the treatment of kinetoplastid infection” (C.N.C.C.S. S.c.a.r.l. COLLEZIONE NAZIONALE DEI COMPOSTI …, priority 2016, dated 2020).

For the experiment, the system named is Bloodstream form of Trypanosoma brucei, strain Lister 427. Briefly: Trypanosoma brucei growth inhibition assay (CellTiter-Glo, 24 h). It is filed as cell-based. The settings on record: Trypanosoma brucei; T. Brucei Growth Inibition Assay, class symbols; read-out: T. Brucei GI EC50. An outline of the steps:
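Bloodstream-form T. brucei Lister 427, 1500 parasites per well in supplemented IMDM with 10% FBS, were exposed to compound (DMSO ≤0.25% final) for 24 h at 37 °C. Viability was measured by CellTiter-Glo luminescence.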
(ATP-based viability assays read luminescence as a measure of living cells.)
Regarding `COc1ccc2nc(C(F)(F)F)n(CC(=O)N3CC[C@H](N)C[C@H]3c3ncc(-c4cc5ccccc5nc4OC)[nH]3)c2c1` [1-((2S,4S)-4-amino-2-(5-(2-methoxyquinolin-3-yl)-1H-imidazol-2-yl)piperidin-1-yl)-2-(6-methoxy-2-(trifluoromethyl)-1H-benzo[d]imidazol-1-yl)ethan-1-one], the EC50 lay in the range of 1010 to 5000 nM.

Consider `COc1ccc2nc(C)n(CC(=O)N3CCN(Cc4ccn(C)n4)C[C@H]3c3ncc(-c4cc5ccccc5nc4OC)[nH]3)c2c1` [(S)-2-(6-methoxy-2-methyl-1H-benzo[d]imidazol-1-yl)-1-(2-(5-(2-methoxyquinolin-3-yl)-1H-imidazol-2-yl)-4-((1-methyl-1H-pyrazol-3-yl)methyl)piperazin-1-yl)ethan-1-one], for which the EC50 is less than 100 nM.

Turning to `COc1ccc2nc(C)n(CC(=O)N3CCC(O)C[C@H]3c3ncc(-c4cc5ccccc5nc4OC)[nH]3)c2c1` (stereo partly drawn), the EC50 was in the range of 510 to 1000 nM.

`CN1CCN(C(=O)Cc2ccccc2)[C@H](c2ncc(-c3ccc4ccccc4c3)[nH]2)C1`: the EC50 fell in the range of 1010 to 5000 nM.

Consider `COc1nc2ccccc2cc1-c1cnc(C2CN(CC3CCOC3)CCN2C(=O)c2nccc3ccccc23)[nH]1` (stereo not drawn), for which the EC50 was in the range of 1010 to 5000 nM.

As to `CO[C@](C(=O)N1CCN(C)C[C@@H]1c1ncc(-c2ccc3ccccc3c2)[nH]1)(c1ccccc1)C(F)(F)F`, the EC50 is 1010 to 5000 nM.

For `COc1ccc2nc(C(F)(F)F)n(CC(=O)N3CCN(Cc4cn(C)nn4)CCC3c3ncc(-c4cc5ccccc5nc4OC)[nH]3)c2c1` (stereo not drawn), the EC50 was in the range of 100 to 500 nM.

Take `COc1ccc2nc(C)n(CC(=O)N3CCS(=O)(=O)CC3c3ncc(-c4cc5ccccc5nc4OC)[nH]3)c2c1` (stereo not drawn): the EC50 was 1010 to 5000 nM.

Take `COc1ccc2nc(C)n(CC(=O)N3CCN(C4CCN(C(C)=O)CC4)C[C@H]3c3ncc(-c4cc5ccccc5nc4OC)[nH]3)c2c1`: the EC50 was in the range of 510 to 1000 nM.

For the compound `O=C(Cc1nc2ccccc2o1)N1CCN(CC2CC2)CC1c1ncc(-c2ccc3ccccc3c2)[nH]1` (stereo not drawn), the EC50 is 1010 to 5000 nM.

In the case of `COc1nc2ccccc2cc1-c1cnc(C2CN(CC3CCOC3)CCN2C(=O)Cc2noc3ccccc23)[nH]1` (stereo not drawn), the EC50 lay within 510 to 1000 nM.

Turning to `COc1ccc2nc(C)n(CC(=O)N3CCN(CC4CCOC4)C[C@H]3c3ncc(-c4cc5ccccc5[nH]4)[nH]3)c2c1` (stereo partly drawn), the EC50 is 1010 to 5000 nM.

In the case of `CCCCCCN1CCN(C(=O)Cc2c(C)[nH]c3ccccc23)C(c2ncc(-c3ccc4ccccc4c3)[nH]2)C1` (stereo not drawn), the EC50 was in the range of 510 to 1000 nM.

For the compound `COc1nc2ccccc2cc1-c1cnc([C@@H]2CN(CC3CCOC3)CCN2C(=O)Cn2c(C(C)(C)C)nc3ccccc32)[nH]1` (stereo partly drawn) [2-(2-(tert-butyl)-1H-benzo[d]imidazol-1-yl)-1-((2S)-2-(5-(2-methoxyquinolin-3-yl)-1H-imidazol-2-yl)-4-((tetrahydrofuran-3-yl)methyl)piperazin-1-yl)ethan-1-one], the EC50 was less than 100 nM.

Turning to `COc1ccc2c(CC(=O)N3CCN(CC4CCOC4)CC3c3ncc(-c4cc5ccccc5nc4OC)[nH]3)coc2c1` (stereo not drawn), the 50% effective concentration (EC50) lay within 510 to 1000 nM.

`COc1ccc2nc(C(F)(F)F)n(CC(=O)N3CCN(CC4CCN(C(C)=O)C4)C[C@H]3c3ncc(-c4cc5ccccc5nc4OC)[nH]3)c2c1` (stereo partly drawn) [1-((2S)-4-((1-acetylpyrrolidin-3-yl)methyl)-2-(5-(2-methoxyquinolin-3-yl)-1H-imidazol-2-yl)piperazin-1-yl)-2-(6-methoxy-2-(trifluoromethyl)-1H-benzo[d]imidazol-1-yl)ethan-1-one]: the EC50 was less than 100 nM.

With `CCC(=O)CCCN1CCN(C(=O)Cc2c(C)[nH]c3ccc(OC)cc23)C(c2ncc(-c3ccc4ccccc4c3)o2)C1` (stereo not drawn) [6-(4-(2-(5-methoxy-2-methyl-1H-indol-3-yl)acetyl)-3-(5-(naphthalen-2-yl)oxazol-2-yl)piperazin-1-yl)hexan-3-one], the EC50 is 1010 to 5000 nM.

For the compound `COc1nc2ccccc2cc1-c1cnc([C@@H]2CN(Cc3cncnc3)CCN2C(=O)Cn2c(C(F)(F)F)nc3ccccc32)[nH]1` [(S)-1-(2-(5-(2-methoxyquinolin-3-yl)-1H-imidazol-2-yl)-4-(pyrimidin-5-ylmethyl)piperazin-1-yl)-2-(2-(trifluoromethyl)-1H-benzo[d]imidazol-1-yl)ethan-1-one], the EC50 is less than 100 nM.

Regarding `CN1CCN(C(=O)Cc2ccccc2F)C(c2ncc(-c3ccc4ccccc4c3)[nH]2)C1` (stereo not drawn), the EC50 fell in the range of 1010 to 5000 nM.

For `COc1ccc2[nH]c(C)c(CC(=O)N3CCN(CCCC(N)=O)CC3c3ncc(-c4ccc5ccccc5c4)[nH]3)c2c1` (stereo not drawn), the EC50 is 100 to 500 nM.

Consider `O=C(Cc1c[nH]c2ccc(O)cc12)N1CCN(CC2CCOC2)CC1c1ncc(-c2ccc3ccccc3c2)[nH]1` (stereo not drawn), for which the EC50 was 510 to 1000 nM.

As to `COc1nc2ccccc2cc1-c1cnc(C2CN(C3CCC3)CCN2C(=O)Cc2c(C)[nH]c3ccc(F)cc23)[nH]1` (stereo not drawn), the EC50 lay in the range of 100 to 500 nM.

In the case of `COc1ccc2nc(C(F)(F)F)n(CC(=O)N3CC[C@H](NCc4ccccn4)C[C@H]3c3ncc(-c4cc5ccccc5nc4OC)[nH]3)c2c1` [2-(6-methoxy-2-(trifluoromethyl)-1H-benzo[d]imidazol-1-yl)-1-((2S,4S)-2-(5-(2-methoxyquinolin-3-yl)-1H-imidazol-2-yl)-4-((pyridin-2-ylmethyl)amino)piperidin-1-yl)ethan-1-one], the EC50 was less than 100 nM.

Take `COc1nc2ccccc2cc1-c1cnc([C@@H]2CN(Cc3ccccc3F)CCN2C(=O)Cn2c(C(F)(F)F)nc3ccccc32)[nH]1`: the EC50 was 100 to 500 nM.

On to `COc1ccc2nc(C)n(CC(=O)N3CCN(C[C@H]4CCOC4)CC3c3ncc(-c4ccc(-c5ccccc5)nc4OC)[nH]3)c2c1` (stereo partly drawn), for which the EC50 was in the range of 100 to 500 nM.

For the compound `COc1ccc2nc(C)n(CC(=O)N3CCN(CCn4cccn4)C[C@H]3c3ncc(-c4cc5ccccc5nc4OC)[nH]3)c2c1`, the EC50 lay in the range of 100 to 500 nM.

For the compound `CCC(=O)CCCN1CCN(C(=O)Cc2ccccc2)C(c2ncc(-c3cc4ccccc4nc3OC)[nH]2)C1` (stereo not drawn), the EC50 lay in the range of 1010 to 5000 nM.

Turning to `CCC(=O)CCCN1CCN(C(=O)Cc2c[nH]c3ncccc23)C(c2ncc(-c3cc4ccccc4nc3OC)[nH]2)C1` (stereo not drawn), the EC50 fell in the range of 510 to 1000 nM.

For `COc1ccc2nc(C(F)(F)F)n(CC(=O)N3CCN(Cc4cocn4)CCC3c3ncc(-c4cc5ccccc5nc4OC)[nH]3)c2c1` (stereo not drawn) [2-(6-methoxy-2-(trifluoromethyl)-1H-benzo[d]imidazol-1-yl)-1-(7-(5-(2-methoxyquinolin-3-yl)-1H-imidazol-2-yl)-4-(oxazol-4-ylmethyl)-1,4-diazepan-1-yl)ethan-1-one], the EC50 is less than 100 nM.

Take `COc1ccc2c(c1)C(CC(=O)N1CCN(Cc3ccccc3)CC1c1ncc(-c3ccc4ccccc4c3)[nH]1)C(=O)N2` (stereo not drawn): the EC50 was 510 to 1000 nM.

`COc1ccc2nc(C(F)(F)F)n(CC(=O)N3CCN(CC4CCOC4)C[C@H]3c3ncc(-c4cc5ccccc5nc4OC)[nH]3)c2c1` (stereo partly drawn) [2-(6-methoxy-2-(trifluoromethyl)-1H-benzo[d]imidazol-1-yl)-1-((2S)-2-(5-(2-methoxyquinolin-3-yl)-1H-imidazol-2-yl)-4-((tetrahydrofuran-3-yl)methyl)piperazin-1-yl)ethan-1-one]: the EC50 was less than 100 nM.

On to `COc1nc2ccccc2cc1-c1cnc(C2CN(CC3CCOC3)CCN2C(=O)Cn2ccnc2-c2ccccc2)[nH]1` (stereo not drawn), for which the EC50 was 1010 to 5000 nM.

Consider `COc1ccc2nc(C)n(CC(=O)N3CCN(CC4CCOC4)C[C@H]3c3ncc(-c4cc5ccccc5nc4OC)[nH]3)c2c1` (stereo partly drawn) [2-(6-methoxy-2-methyl-1H-benzo[d]imidazol-1-yl)-1-((2S)-2-(5-(2-methoxyquinolin-3-yl)-1H-imidazol-2-yl)-4-((tetrahydrofuran-3-yl)methyl)piperazin-1-yl)ethan-1-one], for which the EC50 is less than 100 nM.

Usually EC50 stands for the concentration needed to bring the measured effect to its halfway point.
